GI50 data for 22 molecules are collected here from patent US20260062422A1 (Halda Therapeutics OpCo, Inc., priority 2022, published 2026).

A value given as a limit tells only on which side of the number the result lay.

As a reminder, the GI50 is the concentration giving 50% growth inhibition.

In test [1] the test system is T-Rex 293 cell line SC cells lacking increased expression of progesterone receptor isoform B protein. Description: Cellular growth inhibition, T-Rex 293 SC cells without doxycycline, Example 45. The test is classed as cell-based. The conditions noted are these: T-Rex 293 SC cells not exposed to doxycycline, 72 hours treatment, CellTiter-Glo 2.0. The protocol:
(§1) The following types of cells were prepared for this experiment: (i) a T-Rex 293 cell line having increased expression of progesterone receptor isoform B protein due to exposure to doxycycline and (ii) a T-Rex 293 cell line lacking increased expression of progesterone receptor isoform B protein. Ability of the test compounds to inhibit proliferation of the foregoing cell types was evaluated according to the procedures set forth below.
(§2) The doxycycline-inducible progesterone receptor isoform B protein expressing cell line was established using the following protocol: T-Rex 293 cells were purchased from Invitrogen (Cat #R71007) and transfected using Lipofectamine 2000 with the wild-type progesterone receptor B protein sequence cloned into the pcDNA4/TO vector. Transfected cells were selected using 400 μg/mL Zeocin (Invitrogen Cat #R25001). Following selection, single clones were raised and maintained in Dulbecco's Modified Eagle Medium (DMEM) supplemented with 10% w/w Tetracycline-free fetal bovine serum (FBS) and 250 μg/mL Zeocin. Clones were analyzed for expression of progesterone receptor isoform B protein in the presence and absence of 10 ng/mL doxycycline (Sigma Cat #D9891), and a single doxycycline-inducible clone (hereinafter “SC”) was selected for use in downstream assays.
(§3) The SC cells were seeded on poly-D-lysine coated, black clear-bottom 384-well plates at 2500/well, in 25 μL Phenol Red Free Dulbecco's Modified Eagle Medium (DMEM) supplemented with 10% w/w charcoal-dextran treated fetal bovine serum (FBS) and 1% w/w pen-strep, with or without 10 ng/mL doxycycline. Pen-Strep is a commercially available mixture of penicillin G and streptomycin, which is used in mammalian cell culture media to prevent bacterial contamination. Phenol Red Free Dulbecco's Modified Eagle Medium (DMEM) supplemented with 10% w/w charcoal-dextran treated fetal bovine serum (FBS) and 1% w/w pen-strep, with or without 10 ng/mL doxycycline is herein referred to as Treatment Medium. Following seeding of cells in the plates, the plates were spun at 300×g for 30 seconds, then equilibrated to room temperature for 30 minutes, and then deposited in a humidified tissue culture incubator maintained at 37° C. with 5% CO2.
(§4) At 24 hours after seeding of the cells, dilutions of test compound were prepared in DMSO and dissolved in Treatment Medium, to achieve a final DMSO concentration of 0.5% w/w, thereby providing the Test Compound Solution. A 25 μL aliquot of the Test Compound Solution was added to cells in the well plates. An equal volume of a solution containing DMSO and Treatment Medium was used as a negative control. Following treatment of cells with Test Compound Solution or said equal volume of a solution containing DMSO and Treatment Medium, the plates were spun at 300×g for 30 seconds, and then left in an incubator for 72 hours.
(§5) At the end of the treatment duration, cell viability was quantified with CellTiter-Glo 2.0 reagent (Promega Cat #G9243). For this purpose, plates were equilibrated to room temperature for 30 minutes, and then 25 μL of CellTiter-Glo 2.0 reagent was added to cells in the plate wells. Plates were then agitated on a shaker for two minutes at 500 rpm and subsequently incubated at room temperature for 10 minutes. Following incubation, the plates were spun at 3000×g for 30 seconds, then sealed with an optical adhesive cover, and luminescence readings were measured with an EnVision Plate Reader (Perkin Elmer).
(§6) Data was normalized using zero luminescence for baseline. A four-parameter non-linear regression curve fit was applied to dose-response data in GraphPad Prism data analysis software to determine the half-maximal growth inhibitory concentration (GI50) for each test compound.
(In ATP-based viability assays light output follows the ATP content of the culture.)

Test [2] in a line: Cellular growth inhibition, T-Rex 293 SC cells with doxycycline (progesterone receptor isoform B induced), Example 45. The conditions noted are these: progesterone receptor isoform B induced with 10 ng/mL doxycycline, 72 hours, CellTiter-Glo 2.0, Table 11. It is filed as cell-based. The method, then:
as §1, §2, §3, §4, §5, §6

Regarding `Cc1sc2c(c1C)C(c1ccc(Cl)cc1)=N[C@@H](CC(=O)NCCOCCOCCOCCOCCOCCOCCN(C)c1ncc(C(=O)N[C@H]3C(C)(C)[C@H](Oc4ccc(C#N)c(Cl)c4)C3(C)C)cn1)c1nnc(C)n1-2` [Compound I-4], the GI50 is 1500 to 3000 nM in test [1] and less than 500 nM in test [2].

Regarding `Cc1sc2c(c1C)C(c1ccc(Cl)cc1)=N[C@H](CC(=O)NCCOCCOCCOCCOCCOC1CCN(c3ncc(C(=O)N[C@H]4C(C)(C)[C@H](Oc5ccc(C#N)c(Cl)c5)C4(C)C)cn3)CC1)c1nnc(C)n1-2` [Compound I-14], the values for the GI50 in test [1] and in test [2] were 1500 to 3000 nM and 500 to 1500 nM, respectively.

With `Cc1sc2c(c1C)C(c1ccc(OCCOC3CCN(c4ncc(C(=O)N[C@H]5C(C)(C)[C@H](Oc6ccc(C#N)c(Cl)c6)C5(C)C)cn4)CC3)cc1)=N[C@@H](CC(=O)O)c1nnc(C)n1-2` [Compound I-38], the GI50 in test [1] and in test [2] was greater than 3000 nM throughout.

Consider `Cc1sc2c(c1C)C(c1cccc(OCCOC3CCN(c4ncc(C(=O)N[C@H]5C(C)(C)[C@H](Oc6ccc(C#N)c(Cl)c6)C5(C)C)cn4)CC3)c1)=N[C@@H](CC(=O)O)c1nnc(C)n1-2` [Compound I-41], for which the GI50 in test [1] and in test [2] was greater than 3000 nM in each case.

Regarding `CCNC(=O)C[C@@H]1N=C(c2ccc(OCCOCCOC3CCN(c4ncc(C(=O)N[C@H]5C(C)(C)[C@H](Oc6ccc(C#N)c(Cl)c6)C5(C)C)cn4)CC3)cc2)c2c(sc(C)c2C)-n2c(C)nnc21` [Compound I-44], the GI50 in test [1] and in test [2] was less than 500 nM in each case.

As to `CCNC(=O)C[C@@H]1N=C(c2cccc(OCCOC3CCN(c4ncc(C(=O)N[C@H]5C(C)(C)[C@H](Oc6ccc(C#N)c(Cl)c6)C5(C)C)cn4)CC3)c2)c2c(sc(C)c2C)-n2c(C)nnc21` [Compound I-46, N-((1r,3r)-3-(3-chloro-4-cyanophenoxy)-2,2,4,4-tetramethylcyclobutyl)-2-(4-(2-(3-((S)-6-(2-(ethylamino)-2-oxoethyl)-2,3,9-trimethyl-6H-thieno[3,2-f][1,2,4]triazolo[4,3-a][1,4]diazepin-4-yl)phenoxy)ethoxy)piperidin-1-yl)pyrimidine-5-carboxamide], the GI50 in test [1] is 500 to 1500 nM; in test [2], less than 500 nM.

As to `Cc1sc2c(c1C)C(c1ccc(OC3CC4(CCN(c5ncc(C(=O)N[C@H]6C(C)(C)[C@H](Oc7ccc(C#N)c(Cl)c7)C6(C)C)cn5)CC4)C3)cc1)=N[C@@H](Cc1ncco1)c1nnc(C)n1-2` [Compound I-49, N-[3-(3-chloro-4-cyano-phenoxy)-2,2,4,4-tetramethyl-cyclobutyl]-2-[2-[4-[(9S)-4,5,13-trimethyl-9-(oxazol-2-ylmethyl)-3-thia-1,8,11,12-tetrazatricyclo[8.3.0.02,6]trideca-2(6),4,7,10,12-pentaen-7-yl]phenoxy]-7-azaspiro[3.5]nonan-7-yl]pyrimidine-5-carboxamide], the GI50 is 500 to 1500 nM in test [1] and less than 500 nM in test [2].

Consider `CCNC(=O)C[C@@H]1N=C(c2ccc(C#CCN3CCN(c4ncc(C(=O)N[C@H]5C(C)(C)[C@H](Oc6ccc(C#N)c(Cl)c6)C5(C)C)cn4)CC3)cc2)c2c(sc(C)c2C)-n2c(C)nnc21` [Compound I-54, N-[3-(3-chloro-4-cyano-phenoxy)-2,2,4,4-tetramethyl-cyclobutyl]-2-[4-[3-[4-[(9S)-9-[2-(ethylamino)-2-oxo-ethyl]-4,5,13-trimethyl-3-thia-1,8,11,12-tetrazatricyclo[8.3.0.02,6]trideca-2(6),4,7,10,12-pentaen-7-yl]phenyl]prop-2-ynyl]piperazin-1-yl]pyrimidine-5-carboxamide], for which the GI50 in test [1] and in test [2] was less than 500 nM in each case.

In the case of `Cc1sc2c(c1C)C(c1ccc(C#CCN3CCN(c4ncc(C(=O)N[C@H]5C(C)(C)[C@H](Oc6ccc(C#N)c(Cl)c6)C5(C)C)cn4)CC3)cc1)=N[C@@H](CC(=O)OC(C)(C)C)c1nnc(C)n1-2` [Compound I-55], the GI50 in test [1] is 500 to 1500 nM; in test [2] it was less than 500 nM.

For `CCNC(=O)C[C@@H]1N=C(c2ccc(OC3CCN(c4ncc(C(=O)N[C@H]5C(C)(C)[C@H](Oc6ccc(C#N)c(Cl)c6)C5(C)C)cn4)CC3)cc2)c2c(sc(C)c2C)-n2c(C)nnc21` [Compound I-61], the GI50 in test [1] was 500 to 1500 nM; in test [2], less than 500 nM.

As for `CCNC(=O)C[C@@H]1N=C(c2ccc(OCCCC#Cc3ncc(C(=O)N[C@H]4C(C)(C)[C@H](Oc5ccc(C#N)c(Cl)c5)C4(C)C)cn3)cc2)c2c(sc(C)c2C)-n2c(C)nnc21` [Compound I-83], the GI50 in test [1] was 500 to 1500 nM; in test [2], less than 500 nM.

For `CCNC(=O)C[C@@H]1N=C(c2ccc(Oc3ncc(C(=O)N[C@H]4C(C)(C)[C@H](Oc5ccc(C#N)c(Cl)c5)C4(C)C)cn3)cc2)c2c(sc(C)c2C)-n2c(C)nnc21` [Compound I-84], the figures for the GI50 in test [1] and in test [2] were 500 to 1500 nM and less than 500 nM, respectively.

With `CCNC(=O)C[C@@H]1N=C(c2ccc(OC3CCN(C4CCN(c5ncc(C(=O)N[C@H]6C(C)(C)[C@H](Oc7ccc(C#N)c(Cl)c7)C6(C)C)cn5)CC4)C3)cc2)c2c(sc(C)c2C)-n2c(C)nnc21` (some centres unmarked) [Compound I-85], the GI50 was 500 to 1500 nM in test [1] and less than 500 nM in test [2].

Consider `CCNC(=O)C[C@@H]1N=C(c2ccc(N(C3CC3)C3CN(CC4CCN(c5ncc(C(=O)N[C@H]6C(C)(C)[C@H](Oc7ccc(C#N)c(Cl)c7)C6(C)C)cn5)CC4)C3)cc2)c2c(sc(C)c2C)-n2c(C)nnc21` [Compound I-129], for which the results for the GI50 in test [1] and in test [2] were 500 to 1500 nM and less than 500 nM, respectively.

As to `CCNC(=O)C[C@@H]1N=C(c2ccc(N(C)C3CC(OC4CCN(c5ncc(C(=O)N[C@H]6C(C)(C)[C@H](Oc7ccc(C#N)c(Cl)c7)C6(C)C)cn5)CC4)C3)cc2)c2c(sc(C)c2C)-n2c(C)nnc21` (some centres unmarked) [Compound I-130], the GI50 in test [1] and in test [2] was less than 500 nM in each case.

Take `Cc1sc2c(c1C)C(c1ccc(CC3CC(C4CCN(c5ncc(C(=O)N[C@H]6C(C)(C)[C@H](Oc7ccc(C#N)c(Cl)c7)C6(C)C)cn5)CC4)C3)cc1)=NC(Cc1ncco1)c1nnc(C)n1-2` (some centres unmarked) [Compound I-136]: the GI50 is greater than 3000 nM in test [1] and less than 500 nM in test [2].

`Cc1sc2c(c1C)C(c1ccc(CC3CN(CC4CCN(c5ncc(C(=O)N[C@H]6C(C)(C)[C@H](Oc7ccc(C#N)c(Cl)c7)C6(C)C)cn5)CC4)C3)cc1)=N[C@@H](Cc1ncco1)c1nnc(C)n1-2` [Compound I-153]: the GI50 in test [1] and in test [2] was less than 500 nM throughout.

As to `Cc1sc2c(c1C)C(c1ccc(C[C@H]3C[C@@H]([C@@H]4CCCN(c5ncc(C(=O)N[C@H]6C(C)(C)[C@H](Oc7ccc(C#N)c(Cl)c7)C6(C)C)cn5)C4)C3)cc1)=N[C@@H](Cc1ncco1)c1nnc(C)n1-2` [Compound I-161], the GI50 in test [1] was greater than 3000 nM; in test [2], less than 500 nM.

For the molecule `Cc1sc2c(c1C)C(c1ccc(OC3CN(CC4CCN(c5ncc(C(=O)N[C@H]6C(C)(C)[C@H](Oc7ccc(C#N)c(Cl)c7)C6(C)C)cn5)CC4)C3)cc1)=N[C@H](Cc1ncco1)c1nnc(C)n1-2` [Compound I-169], the GI50 in test [1] and in test [2] was less than 500 nM in each case.

As for `Cc1sc2c(c1C)C(c1ccc(O[C@H]3CC[C@@]4(CCCN(c5ncc(C(=O)N[C@H]6C(C)(C)[C@H](Oc7ccc(C#N)c(Cl)c7)C6(C)C)cn5)C4)CC3)cc1)=N[C@@H](Cc1ncco1)c1nnc(C)n1-2` [Compound I-172], the GI50 is 500 to 1500 nM in test [1] and less than 500 nM in test [2].

Take `Cc1sc2c(c1C)C(c1ccc(N3CC(C4CCN(c5ncc(C(=O)N[C@H]6C(C)(C)[C@H](Oc7ccc(C#N)c(Cl)c7)C6(C)C)cn5)CC4)C3)cc1)=NC(Cc1ncco1)c1nnc(C)n1-2` (some centres unmarked) [Compound I-209]: the GI50 in test [1] is 500 to 1500 nM; in test [2], less than 500 nM.

On to `Cc1sc2c(c1C)C(c1ccc(C3CC3C3CC4(CCN(c5ncc(C(=O)N[C@H]6C(C)(C)[C@H](Oc7ccc(C#N)c(Cl)c7)C6(C)C)cn5)CC4)C3)cc1)=N[C@@H](Cc1ncco1)c1nnc(C)n1-2` (some centres unmarked) [Compound I-237], for which the GI50 was greater than 3000 nM in test [1] and less than 500 nM in test [2].
